Measured values taken from ChEMBL document CHEMBL3817837, “Targeting epigenetic reader and eraser: Rational design, synthesis and in vitro evaluation of dimethylisoxazoles derivatives as BRD4/HDAC dual inhibitors” (Bioorg Med Chem Lett, 2016).

Tests used:
Histone deacetylase 1 = Histone deacetylase 1 (Homo sapiens, UniProt Q13547); assay: Inhibition of recombinant HDAC1 (unknown origin) using of Fluor-de-Lys substrate incubated for 10 mins by fluorimetric assay
[1] = target: Histone acetyltransferase KAT2B (Homo sapiens) (UniProt Q92831); assay: Binding affinity to human PCAF expressed in Escherichia coli BL21(DE3)-R3-pRARE2 assessed as change in melting temperature at 25 uM by SYPRO orange based protein stability shift assay
[2] = target: T1, Bromodomain-containing protein 9 (Homo sapiens) (UniProt Q9H8M2); assay: Binding affinity to human BRD9 expressed in Escherichia coli BL21(DE3)-R3-pRARE2 assessed as change in melting temperature at 25 uM by SYPRO orange based protein stability shift assay
T1 sequence (whole entry): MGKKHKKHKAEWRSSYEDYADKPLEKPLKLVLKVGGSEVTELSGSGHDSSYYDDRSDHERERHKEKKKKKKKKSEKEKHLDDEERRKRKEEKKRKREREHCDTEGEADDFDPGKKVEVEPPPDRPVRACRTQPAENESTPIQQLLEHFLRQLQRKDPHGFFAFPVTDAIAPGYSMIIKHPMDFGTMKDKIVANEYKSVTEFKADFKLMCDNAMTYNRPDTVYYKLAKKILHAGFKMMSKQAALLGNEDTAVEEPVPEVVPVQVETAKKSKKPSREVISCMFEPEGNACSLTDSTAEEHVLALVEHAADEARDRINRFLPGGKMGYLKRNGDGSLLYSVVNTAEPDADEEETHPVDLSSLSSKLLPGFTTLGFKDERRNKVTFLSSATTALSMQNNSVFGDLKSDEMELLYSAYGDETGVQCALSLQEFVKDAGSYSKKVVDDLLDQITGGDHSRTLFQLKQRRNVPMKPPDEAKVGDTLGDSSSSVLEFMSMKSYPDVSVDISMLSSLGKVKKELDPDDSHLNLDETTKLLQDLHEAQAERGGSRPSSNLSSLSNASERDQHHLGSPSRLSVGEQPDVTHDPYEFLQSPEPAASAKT

[3] = target: T2, Bromodomain-containing protein 4 (Homo sapiens, UniProt O60885); assay: Inhibition of human BRD4 expressed in Escherichia coli BL21(DE3)-R3-pRARE2 by bromodomain alphascreen peptide displacement assay
[4] = target: T2, Bromodomain-containing protein 4
Description: Binding affinity to human BRD4 expressed in Escherichia coli BL21(DE3)-R3-pRARE2 assessed as change in melting temperature at 25 uM by SYPRO orange based protein stability shift assay

[5] = target: CREB-binding protein (Homo sapiens) (UniProt Q92793); assay: Binding affinity to human CREBBP expressed in Escherichia coli BL21(DE3)-R3-pRARE2 assessed as change in melting temperature at 25 uM by SYPRO orange based protein stability shift assay
CREB-binding protein (Homo sapiens), sequence (Q92793 2-2442 limits assumed): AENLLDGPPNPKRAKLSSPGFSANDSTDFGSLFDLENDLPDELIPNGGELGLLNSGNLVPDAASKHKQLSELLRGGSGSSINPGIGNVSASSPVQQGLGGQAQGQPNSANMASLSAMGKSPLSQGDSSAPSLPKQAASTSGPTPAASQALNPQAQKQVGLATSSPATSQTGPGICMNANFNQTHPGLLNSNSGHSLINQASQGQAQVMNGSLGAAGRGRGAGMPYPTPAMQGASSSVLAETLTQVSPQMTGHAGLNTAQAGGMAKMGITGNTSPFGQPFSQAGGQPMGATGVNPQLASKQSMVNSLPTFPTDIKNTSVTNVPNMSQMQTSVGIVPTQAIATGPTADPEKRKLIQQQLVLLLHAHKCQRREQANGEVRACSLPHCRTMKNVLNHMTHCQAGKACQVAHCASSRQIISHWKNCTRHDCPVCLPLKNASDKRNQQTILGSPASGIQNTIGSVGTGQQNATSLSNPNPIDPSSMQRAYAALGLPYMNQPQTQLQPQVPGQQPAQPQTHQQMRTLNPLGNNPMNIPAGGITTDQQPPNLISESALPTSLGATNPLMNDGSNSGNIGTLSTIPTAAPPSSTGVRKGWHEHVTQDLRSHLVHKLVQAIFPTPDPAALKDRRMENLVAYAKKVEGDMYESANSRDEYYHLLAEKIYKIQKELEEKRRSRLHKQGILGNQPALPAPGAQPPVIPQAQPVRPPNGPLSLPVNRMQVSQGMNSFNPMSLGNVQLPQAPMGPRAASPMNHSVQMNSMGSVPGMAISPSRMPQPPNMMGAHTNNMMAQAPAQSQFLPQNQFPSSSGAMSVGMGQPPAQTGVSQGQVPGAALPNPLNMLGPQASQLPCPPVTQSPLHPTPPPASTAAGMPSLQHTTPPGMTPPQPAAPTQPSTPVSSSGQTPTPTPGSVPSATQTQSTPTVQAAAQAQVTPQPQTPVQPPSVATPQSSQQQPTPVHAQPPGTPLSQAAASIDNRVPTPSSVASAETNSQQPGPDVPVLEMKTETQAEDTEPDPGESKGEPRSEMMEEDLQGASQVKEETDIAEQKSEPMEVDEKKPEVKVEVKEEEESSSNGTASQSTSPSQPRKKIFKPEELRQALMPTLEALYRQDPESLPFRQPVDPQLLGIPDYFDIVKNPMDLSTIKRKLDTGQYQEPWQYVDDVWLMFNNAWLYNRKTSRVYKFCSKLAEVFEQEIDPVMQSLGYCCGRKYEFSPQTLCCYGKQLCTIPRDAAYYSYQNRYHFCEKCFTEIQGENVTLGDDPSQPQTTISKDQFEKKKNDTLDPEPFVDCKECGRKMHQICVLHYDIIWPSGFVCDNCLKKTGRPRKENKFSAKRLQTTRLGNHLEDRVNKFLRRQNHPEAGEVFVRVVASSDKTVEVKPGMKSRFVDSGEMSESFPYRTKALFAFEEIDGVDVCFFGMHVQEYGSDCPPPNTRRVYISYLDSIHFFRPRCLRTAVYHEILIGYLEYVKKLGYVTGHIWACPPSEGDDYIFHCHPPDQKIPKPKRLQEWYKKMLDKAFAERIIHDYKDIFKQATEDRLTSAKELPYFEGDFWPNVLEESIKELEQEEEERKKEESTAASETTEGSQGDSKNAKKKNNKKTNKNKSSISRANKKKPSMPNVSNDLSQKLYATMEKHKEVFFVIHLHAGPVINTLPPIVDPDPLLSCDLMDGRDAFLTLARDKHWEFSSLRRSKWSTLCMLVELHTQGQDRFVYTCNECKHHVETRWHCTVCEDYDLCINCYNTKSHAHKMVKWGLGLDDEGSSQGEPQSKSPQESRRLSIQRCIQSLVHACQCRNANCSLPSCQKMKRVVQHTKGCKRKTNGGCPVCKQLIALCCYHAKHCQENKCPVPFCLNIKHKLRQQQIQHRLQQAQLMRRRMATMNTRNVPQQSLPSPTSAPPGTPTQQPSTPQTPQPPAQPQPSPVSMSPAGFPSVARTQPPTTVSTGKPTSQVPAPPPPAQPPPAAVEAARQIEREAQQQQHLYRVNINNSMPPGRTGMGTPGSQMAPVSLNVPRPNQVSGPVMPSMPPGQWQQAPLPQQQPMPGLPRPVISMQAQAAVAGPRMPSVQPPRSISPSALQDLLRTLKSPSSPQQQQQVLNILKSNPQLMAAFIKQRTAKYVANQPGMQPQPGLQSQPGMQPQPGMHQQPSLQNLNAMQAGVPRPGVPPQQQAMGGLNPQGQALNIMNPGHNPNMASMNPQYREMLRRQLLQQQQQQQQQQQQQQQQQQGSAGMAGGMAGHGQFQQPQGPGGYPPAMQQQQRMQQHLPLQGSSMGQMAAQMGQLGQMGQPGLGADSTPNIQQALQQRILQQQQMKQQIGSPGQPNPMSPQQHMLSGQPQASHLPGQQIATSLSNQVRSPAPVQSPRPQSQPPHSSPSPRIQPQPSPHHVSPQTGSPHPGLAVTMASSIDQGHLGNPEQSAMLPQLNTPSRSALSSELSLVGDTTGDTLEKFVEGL

[6] = target: Transcription initiation factor TFIID subunit 1 (Homo sapiens) (UniProt P21675); assay: Binding affinity to human TAF1 expressed in Escherichia coli BL21(DE3)-R3-pRARE2 assessed as change in melting temperature at 25 uM by SYPRO orange based protein stability shift assay
Transcription initiation factor TFIID subunit 1 (Homo sapiens), sequence (P21675 whole entry): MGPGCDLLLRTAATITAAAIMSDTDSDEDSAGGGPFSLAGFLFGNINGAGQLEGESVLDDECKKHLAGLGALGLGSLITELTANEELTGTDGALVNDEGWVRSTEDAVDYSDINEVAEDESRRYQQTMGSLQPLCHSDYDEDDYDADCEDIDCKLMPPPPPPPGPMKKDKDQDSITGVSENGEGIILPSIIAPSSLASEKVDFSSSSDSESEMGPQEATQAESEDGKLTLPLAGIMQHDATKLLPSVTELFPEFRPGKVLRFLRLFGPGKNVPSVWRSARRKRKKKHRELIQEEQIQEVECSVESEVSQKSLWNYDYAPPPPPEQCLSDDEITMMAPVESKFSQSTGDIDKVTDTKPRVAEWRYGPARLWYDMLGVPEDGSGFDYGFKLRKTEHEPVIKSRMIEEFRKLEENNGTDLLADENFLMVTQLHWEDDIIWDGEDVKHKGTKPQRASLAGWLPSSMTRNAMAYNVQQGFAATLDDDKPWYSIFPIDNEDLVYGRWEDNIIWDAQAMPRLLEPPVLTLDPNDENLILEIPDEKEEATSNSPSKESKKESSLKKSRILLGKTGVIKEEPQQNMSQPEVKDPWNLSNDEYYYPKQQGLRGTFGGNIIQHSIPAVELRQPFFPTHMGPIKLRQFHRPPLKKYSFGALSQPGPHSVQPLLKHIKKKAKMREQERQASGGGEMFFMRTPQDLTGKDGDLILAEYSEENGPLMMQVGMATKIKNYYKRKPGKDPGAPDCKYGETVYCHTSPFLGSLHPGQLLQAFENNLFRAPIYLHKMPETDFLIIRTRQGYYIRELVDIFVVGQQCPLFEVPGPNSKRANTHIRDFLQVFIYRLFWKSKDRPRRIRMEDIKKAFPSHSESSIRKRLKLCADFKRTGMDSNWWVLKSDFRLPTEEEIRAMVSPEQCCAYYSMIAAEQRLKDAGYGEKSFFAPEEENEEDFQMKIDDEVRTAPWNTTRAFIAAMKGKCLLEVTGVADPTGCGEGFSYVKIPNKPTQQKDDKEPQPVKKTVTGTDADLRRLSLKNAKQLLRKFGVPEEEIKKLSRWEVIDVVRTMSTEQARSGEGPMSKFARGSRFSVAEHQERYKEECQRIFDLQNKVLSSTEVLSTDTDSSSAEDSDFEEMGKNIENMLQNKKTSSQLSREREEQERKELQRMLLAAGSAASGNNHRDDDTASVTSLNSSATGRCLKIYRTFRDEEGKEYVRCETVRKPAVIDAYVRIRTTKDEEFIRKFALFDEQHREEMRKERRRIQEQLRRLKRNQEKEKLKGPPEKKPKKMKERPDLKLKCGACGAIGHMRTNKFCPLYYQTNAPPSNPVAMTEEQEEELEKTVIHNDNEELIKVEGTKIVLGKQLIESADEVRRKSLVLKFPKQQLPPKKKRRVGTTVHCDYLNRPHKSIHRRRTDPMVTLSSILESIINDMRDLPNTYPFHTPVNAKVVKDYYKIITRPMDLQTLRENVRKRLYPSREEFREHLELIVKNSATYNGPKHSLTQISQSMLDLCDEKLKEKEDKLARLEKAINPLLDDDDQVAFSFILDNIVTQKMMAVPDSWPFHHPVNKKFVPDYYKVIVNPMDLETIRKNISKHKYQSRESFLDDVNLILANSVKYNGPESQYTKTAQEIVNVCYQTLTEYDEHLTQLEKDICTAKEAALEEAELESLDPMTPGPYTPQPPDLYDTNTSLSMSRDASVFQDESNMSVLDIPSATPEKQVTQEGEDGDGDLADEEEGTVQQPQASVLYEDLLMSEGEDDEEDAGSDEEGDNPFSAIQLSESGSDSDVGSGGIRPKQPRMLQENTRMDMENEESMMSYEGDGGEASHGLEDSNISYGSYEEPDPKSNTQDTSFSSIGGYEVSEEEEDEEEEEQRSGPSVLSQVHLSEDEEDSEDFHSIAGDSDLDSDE

[7] = target: Chromatin remodeling regulator CECR2 (Homo sapiens) (UniProt Q9BXF3); assay: Binding affinity to human CECR2 expressed in Escherichia coli BL21(DE3)-R3-pRARE2 assessed as change in melting temperature at 25 uM by SYPRO orange based protein stability shift assay
MV4-11 = assay: Antiproliferative activity against human MV4-11 cells assessed as reduction in cell viability incubated for 72 hrs by Alamar blue assay; assay type: functional, cell-based; conditions: MV4-11, 72 h
K562 = assay: Antiproliferative activity against human K562 cells assessed as reduction in cell viability incubated for 72 hrs by Alamar blue assay; assay type: functional, cell-based; conditions: K562, 72 h

Histone deacetylase 1, sequence (Q13547 whole entry): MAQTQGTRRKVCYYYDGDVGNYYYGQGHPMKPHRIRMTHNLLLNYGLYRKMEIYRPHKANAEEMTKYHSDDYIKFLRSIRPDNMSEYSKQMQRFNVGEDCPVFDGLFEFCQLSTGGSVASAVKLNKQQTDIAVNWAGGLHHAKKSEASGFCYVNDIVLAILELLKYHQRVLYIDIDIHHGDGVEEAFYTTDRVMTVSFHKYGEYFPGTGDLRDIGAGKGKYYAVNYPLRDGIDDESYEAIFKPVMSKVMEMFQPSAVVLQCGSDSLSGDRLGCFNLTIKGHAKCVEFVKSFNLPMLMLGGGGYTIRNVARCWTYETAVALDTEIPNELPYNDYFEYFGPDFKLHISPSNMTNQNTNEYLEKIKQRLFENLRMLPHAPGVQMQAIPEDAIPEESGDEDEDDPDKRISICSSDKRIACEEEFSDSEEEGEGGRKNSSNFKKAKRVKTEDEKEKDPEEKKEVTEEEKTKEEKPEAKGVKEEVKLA

Q: Which IC50 (Histone deacetylase 1) does the source give for `Cc1noc(C)c1-c1cc(OCCCCC(=O)NO)cc(C(=O)c2ccccc2)c1` here?
A: 5450 nM

Q: And the ΔTm [1]?
A: -7.9 °C

Q: And the ΔTm [2]?
A: -0.75 °C

Q: And the IC50 [3]?
A: 1490 nM

Q: And the ΔTm [4]?
A: 5.89 °C

Q: And the ΔTm [5]?
A: -0.01 °C

Q: What about the ΔTm [6] of the same molecule?
A: 1.14 °C

Q: `Cc1noc(C)c1-c1cc(NC(=O)CCCCC(=O)NO)cc(C(=O)c2ccccc2)c1` was tested. Which IC50 (Histone deacetylase 1) did it give?
A: 760 nM

Q: And the ΔTm [1]?
A: 0.31 °C

Q: What about the ΔTm [2] of the same molecule?
A: 2.79 °C

Q: What about the IC50 [3] of the same molecule?
A: 780 nM

Q: What about the ΔTm [4] of the same molecule?
A: 6.21 °C

Q: What about the ΔTm [7] of the same molecule?
A: 1.65 °C

Q: What about the ΔTm [5] of the same molecule?
A: 2.05 °C

Q: What about the ΔTm [6] of the same molecule?
A: 1.95 °C

Q: Which results are given for `Cc1noc(C)c1-c1cc(NC(=O)CCCCCCC(=O)NO)cc(C(=O)c2ccccc2)c1`?
A: IC50 (MV4-11): 910 nM; IC50 (Histone deacetylase 1): 150 nM; ΔTm [1]: 1.35 °C; ΔTm [2]: 2.97 °C; IC50 [3]: 670 nM; ΔTm [4]: 7.49 °C; ΔTm [7]: 1.96 °C; ΔTm [5]: 3.24 °C; IC50 (K562): 1860 nM; ΔTm [6]: 2.22 °C

Q: `Cc1noc(C)c1-c1cccc(NC(=O)CCCCCC(=O)NO)c1` was tested. Which IC50 (Histone deacetylase 1) did it give?
A: 360 nM

Q: What about the ΔTm [1] of the same molecule?
A: 0.05 °C

Q: What about the ΔTm [2] of the same molecule?
A: -0.13 °C

Q: What about the IC50 [3] of the same molecule?
A: 3730 nM

Q: What about the ΔTm [4] of the same molecule?
A: 3.58 °C

Q: What about the ΔTm [7] of the same molecule?
A: 0.64 °C

Q: What about the ΔTm [5] of the same molecule?
A: 0.73 °C

Q: What about the ΔTm [6] of the same molecule?
A: 1.08 °C

Q: With `O=C(CCCCCCC(=O)Nc1ccccc1)NO` [VORINOSTAT] as the molecule, how does the IC50 (K562) read?
A: 170 nM

Q: What does the source list for `Cc1noc(C)c1-c1cc(OCCCCCCC(=O)NO)cc(C(O)c2ccccc2)c1` (configuration not stated)?
A: IC50 (Histone deacetylase 1): 970 nM; ΔTm [1]: 0.35 °C; ΔTm [2]: 1.55 °C; IC50 [3]: 770 nM; ΔTm [4]: 7.53 °C; ΔTm [7]: 1.32 °C; ΔTm [5]: 4.03 °C; ΔTm [6]: 1.72 °C

Q: Which IC50 (MV4-11) does the source give for `Cc1noc(C)c1-c1cc(NC(=O)CCCCCC(=O)NO)cc(C(=O)c2ccccc2)c1` here?
A: 1040 nM

Q: What about the IC50 (Histone deacetylase 1) of the same molecule?
A: 270 nM

Q: What about the ΔTm [1] of the same molecule?
A: 0.92 °C

Q: What about the ΔTm [2] of the same molecule?
A: 2.26 °C

Q: What about the IC50 [3] of the same molecule?
A: 850 nM

Q: And the ΔTm [4]?
A: 6.37 °C

Q: And the ΔTm [7]?
A: 1.52 °C

Q: What about the ΔTm [5] of the same molecule?
A: 2.32 °C

Q: And the IC50 (K562)?
A: 2330 nM

Q: What about the ΔTm [6] of the same molecule?
A: 1.76 °C

Q: `Cc1noc(C)c1-c1cc(OCCCCCCC(=O)NO)cc(C(=O)c2ccccc2)c1` was tested. Which IC50 (Histone deacetylase 1) did it give?
A: 1430 nM

Q: And the ΔTm [1]?
A: 1.04 °C

Q: What about the ΔTm [2] of the same molecule?
A: 1.72 °C

Q: And the IC50 [3]?
A: 1050 nM

Q: What about the ΔTm [4] of the same molecule?
A: 7.41 °C

Q: And the ΔTm [5]?
A: 2.13 °C

Q: What about the ΔTm [6] of the same molecule?
A: 2.22 °C

Q: Which IC50 (Histone deacetylase 1) does the source give for `Cc1noc(C)c1-c1cc(OCCCCCC(=O)NO)cc(C(=O)c2ccccc2)c1` here?
A: 1490 nM

Q: What about the ΔTm [1] of the same molecule?
A: 0.28 °C

Q: And the ΔTm [2]?
A: 1.56 °C

Q: What about the IC50 [3] of the same molecule?
A: 1380 nM

Q: And the ΔTm [4]?
A: 7.54 °C

Q: And the ΔTm [7]?
A: 1.18 °C

Q: What about the ΔTm [5] of the same molecule?
A: 1.69 °C

Q: What about the ΔTm [6] of the same molecule?
A: 1.69 °C

Q: Which results are given for `Cc1noc(C)c1-c1cc(OCCCCCCCC(=O)NO)cc(C(=O)c2ccccc2)c1`?
A: IC50 (Histone deacetylase 1): 1740 nM; ΔTm [1]: -0.31 °C; ΔTm [2]: 1.22 °C; IC50 [3]: 2990 nM; ΔTm [4]: 4.91 °C; ΔTm [7]: 2.06 °C; ΔTm [5]: 0.65 °C; ΔTm [6]: 1.77 °C

Q: With `Cc1sc2c(c1C)C(c1ccc(Cl)cc1)=N[C@@H](CC(=O)OC(C)(C)C)c1nnc(C)n1-2` (racemic) as the molecule, how does the IC50 (MV4-11) read?
A: 240 nM

Q: And the IC50 (K562)?
A: 640 nM
